Key:
Assay in all cases: Cell growth assay
Format in all cases: cell-based
HCC-70 = details: Homo sapiens, HCC70, 72 h; HCC-70, RAF WT, RAS WT, 3-day; read-out: gIC50
Method: (§1) Growth was measured with CellTiter-Glo® (Promega) reagent per the manufacturer’s protocol, using a PerkinElmer EnVision™ reader at t = 0 and 72 h. IC50 values for cell growth inhibition (gIC50) were determined.
(§2) (PDF) Click here for additional data file.

DOTC 24510 = details: Homo sapiens, DoTc2-4510, 72 h; DOTC 24510, RAF WT, RAS WT, 3-day; read-out: gIC50
Method: as §1, §2

Be(2)C = details: Homo sapiens, 72 h, RAF WT, RAS WT, 3-day, read-out: gIC50
Method: as §1, §2

Colo 205 = details: Homo sapiens, 72 h; Colo 205, BRAF(V600E), RAS WT, 3-day; read-out: gIC50
Method: as §1, §2

MC/CAR = details: Homo sapiens, 72 h, RAF WT, RAS WT, 3-day, read-out: gIC50
Method: as §1, §2

NCI-H716 = details: Homo sapiens, 72 h; NCI-H716, RAF WT, RAS WT, 3-day; read-out: gIC50
Method: as §1, §2

SNU-16 = details: Homo sapiens, 72 h; SNU-16, RAF WT, RAS WT, 3-day; read-out: gIC50
Method: as §1, §2

SaOS2 = details: Homo sapiens, SAOS-2, 72 h; SaOS2, RAF WT, RAS WT, 3-day; read-out: gIC50
Method: as §1, §2

NCI-H157 = details: Homo sapiens, 72 h; NCI-H157, RAF WT, RAS WT, 3-day; read-out: gIC50
Method: as §1, §2

KYSE-30 = details: Homo sapiens, 72 h; KYSE-30, RAF WT, RAS WT, 3-day; read-out: gIC50
Method: as §1, §2

SF-268 = details: Homo sapiens, 72 h; SF-268, RAF WT, RAS WT, 3-day; read-out: gIC50
Method: as §1, §2

A431 = details: Homo sapiens, A-431, 72 h; A431, RAF WT, RAS WT, 3-day; read-out: gIC50
Method: as §1, §2

ARH-77 = details: Homo sapiens, 72 h; ARH-77, RAF WT, RAS WT, 3-day; read-out: gIC50
Method: as §1, §2

SF-295 = details: Homo sapiens, 72 h; SF-295, RAF WT, RAS WT, 3-day; read-out: gIC50
Method: as §1, §2

MCF-7 = details: Homo sapiens, MCF7, 72 h; MCF-7, RAF WT, RAS WT, 3-day; read-out: gIC50
Method: as §1, §2

CRO-AP2 = details: Homo sapiens, 72 h; CRO-AP2, RAF WT, RAS WT, 3-day; read-out: gIC50
Method: as §1, §2

MES-SA = details: Homo sapiens, 72 h, RAF WT, RAS WT, 3-day, read-out: gIC50
Method: as §1, §2

NCI-H69 = details: Homo sapiens, 72 h; NCI-H69, RAF WT, RAS WT, 3-day; read-out: gIC50
Method: as §1, §2

SK-UT-1 = details: Homo sapiens, 72 h; SK-UT-1, RAF WT, RAS WT, 3-day; read-out: gIC50
Method: as §1, §2

FaDu = details: Homo sapiens, 72 h, RAF WT, RAS WT, 3-day, read-out: gIC50
Method: as §1, §2

SW1463 = details: Homo sapiens, 72 h; SW1463, RAF WT, RAS WT, 3-day; read-out: gIC50
Method: as §1, §2

Calu-6 = details: Homo sapiens, 72 h; Calu-6, RAF WT, KRAS(Q61K), 3-day; read-out: gIC50
Method: as §1, §2

SK-N-AS = details: Homo sapiens, 72 h, RAF WT, NRAS(Q61K), 3-day, read-out: gIC50
Method: as §1, §2

DLD-1 = details: Homo sapiens, 72 h; DLD-1, RAF WT, KRAS(G13D), 3-day; read-out: gIC50
Method: as §1, §2

IGROV1 = details: Homo sapiens, IGROV-1, 72 h; IGROV1, RAF WT, RAS WT, 3-day; read-out: gIC50
Method: as §1, §2

A427 = details: Homo sapiens, A-427, 72 h; A427, RAF WT, RAS WT, 3-day; read-out: gIC50
Method: as §1, §2

KHOS-240S = details: Homo sapiens, 72 h, RAF WT, RAS WT, 3-day, read-out: gIC50
Method: as §1, §2

MDA-MB-175 VII = details: Homo sapiens, 72 h, RAF WT, RAS WT, 3-day, read-out: gIC50
Method: as §1, §2

OVCAR-3 = details: Homo sapiens, 72 h; OVCAR-3, RAF WT, RAS WT, 3-day; read-out: gIC50
Method: as §1, §2

SCLC-3 = details: Homo sapiens, 72 h; SCLC-3, RAF WT, RAS WT, 3-day; read-out: gIC50
Method: as §1, §2

NCI-H187 = details: Homo sapiens, 72 h; NCI-H187, RAF WT, RAS WT, 3-day; read-out: gIC50
Method: as §1, §2

A549 = details: Homo sapiens, 72 h; A549, RAF WT, KRAS(G12S), 3-day; read-out: gIC50
Method: as §1, §2

Measured: IC50

CC(C)(C)c1nc(-c2cccc(NS(=O)(=O)c3c(F)cccc3F)c2F)c(-c2ccnc(N)n2)s1 [dabrafenib]
7 nM: Colo 205
6.99 µM: MES-SA
1000 nM: MC/CAR
> 10 µM: all other assays above
